# Reference: patent publication EP4806435A1, “DIHYDROCHROMENE-DERIVATIVE-CONTAINING THERAPEUTIC AGENT FOR CANCER” (Sumitomo Pharma Co., Ltd., priority 2023, dated 2025)
# System: patients with recurrent malignant glioma classified as WHO grade III or IV
# Test: Phase 1 dose-escalation clinical trial: safety (TEAEs, DLTs, MTD);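 also: dosing continued until unacceptable toxicity, consent withdrawal, loss to follow-up or investigator/sponsor decision, with cohorts of 1-6 patients per dose level and MTD estimated by BLRM from cumulative DLT data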
# [1] = 20 mg (N=2), cutoff April 21, 2023
# [2] = 20 mg QD (N=2), cutoff April 21, 2024
# [3] = 40 mg (N=4), cutoff April 21, 2023
# [4] = 40 mg QD (N=4), cutoff April 21, 2024
# [5] = 80 mg (N=3), cutoff April 21, 2023
# [6] = 80 mg QD (N=3), cutoff April 21, 2024
# [7] = 120 mg (N=6), cutoff April 21, 2023
# [8] = 120 mg QD (N=6), cutoff April 21, 2024
# [9] = 180 mg (N=3), cutoff April 21, 2023
# [10] = 180 mg QD (N=6), cutoff April 21, 2024
# Description: Administration to each subject was continued until unacceptable toxicity occurred, consent was withdrawn, the subject was lost to follow-up, or discontinuation was determined by the investigator and/or the sponsor.
# The present study consists of two parts: a dose-escalation part (Part 1) and a dose-expansion part (Part 2).
# Each dose level was evaluated in cohorts of 1-6 patients. In all cohorts, administration of the investigational drug to the second and subsequent patients was permitted after completion of all safety assessments on Day 8 of Cycle 1 in the first patient. […] At dose level 2 in the dose-escalation part, at least three patients were required to be evaluated before escalation to a higher dose level. After completion of each cohort, the probability of observing a DLT at each dose level in the present study was updated using the BLRM based on cumulative data from the preceding cohorts, and the MTD was estimated.
smiles,measurement,setting,value
"CC1(C)Oc2cc(Cl)ccc2[C@@H]2OCC3(CCN(CCn4ccnc4)CC3)C[C@H]21 [Compound 1, (4'aR,10'bR)-8'-chloro-1-[2-(1H-imidazol-1-yl)ethyl]-5',5'-dimethyl-4'a,10'b-dihydro-2'H,4'H,5'H-spiro[piperidine-4,3'-pyrano[3,2-c][1]benzopyran] diphosphate]",Number of patients with any TEAE,[1],2 (100) n (%)
same,TEAE: constipation,[1],0 n (%)
same,TEAE: decreased appetite,[1],0 n (%)
same,TEAE: decreased lymphocyte count,[1],0 n (%)
same,TEAE: decreased neutrophil count,[1],0 n (%)
same,TEAE: decreased platelet count,[1],0 n (%)
same,TEAE: decreased white blood cell count,[1],0 n (%)
same,TEAE: dry skin,[1],1 (50.0) n (%)
same,TEAE: fall,[1],0 n (%)
same,TEAE: headache,[1],0 n (%)
same,TEAE: hypertrigly-ceridaemia,[1],0 n (%)
same,TEAE: hyponatremia,[1],0 n (%)
same,TEAE: increased alanine aminotransferase,[1],1 (50.0) n (%)
same,TEAE: increased aspartate aminotransferase,[1],1 (50.0) n (%)
same,TEAE: nausea,[1],1 (50.0) n (%)
same,TEAE: seizure,[1],1 (50.0) n (%)
same,TEAE: vomiting,[1],0 n (%)
same,Number of Patients with Any TEAE,[2],2 (100) n (%)
same,TEAE: Confusional state,[2],0 n (%)
same,TEAE: Gait disturbance,[2],0 n (%)
same,TEAE: Gastrointestinal disorder,[2],0 n (%)
same,TEAE: Hiccups,[2],0 n (%)
same,TEAE: Tremor,[2],0 n (%)
same,TEAE: alopecia,[2],0 n (%)
same,TEAE: constipation,[2],0 n (%)
same,TEAE: decreased appetite,[2],0 n (%)
same,TEAE: decreased lymphocyte count,[2],0 n (%)
same,TEAE: decreased neutrophil count,[2],0 n (%)
same,TEAE: decreased platelet count,[2],0 n (%)
same,TEAE: diarrhea,[2],0 n (%)
same,TEAE: dry skin,[2],1 (50.0) n (%)
same,TEAE: fall,[2],0 n (%)
same,TEAE: fatigue,[2],0 n (%)
same,TEAE: headache,[2],0 n (%)
same,TEAE: hypertrigly-ceridaemia,[2],0 n (%)
same,TEAE: hyponatremia,[2],0 n (%)
same,TEAE: increase in blood cholesterol,[2],0 n (%)
same,TEAE: increased alanine aminotransferase,[2],1 (50.0) n (%)
same,TEAE: increased aspartate aminotransferase,[2],1 (50.0) n (%)
same,TEAE: maculopapular rash,[2],0 n (%)
same,TEAE: nausea,[2],1 (50.0) n (%)
same,TEAE: seizure,[2],1 (50.0) n (%)
same,TEAE: vomiting,[2],0 n (%)
same,dose-limiting toxicities,"20 mg to 240 mg, cutoff April 21, 2023",No dose-limiting toxicities were observed at any dose level
same,serious TEAE: seizure,"20 mg, 120 mg, and 180 mg groups, cutoff April 21, 2023",three
same,Number of patients with any TEAE,[3],4 (100) n (%)
same,TEAE: constipation,[3],1 (25.0) n (%)
same,TEAE: decreased appetite,[3],1 (25.0) n (%)
same,TEAE: decreased lymphocyte count,[3],2 (50.0) n (%)
same,TEAE: decreased neutrophil count,[3],2 (50.0) n (%)
same,TEAE: decreased platelet count,[3],2 (50.0) n (%)
same,TEAE: decreased white blood cell count,[3],2 (50.0) n (%)
same,TEAE: dry skin,[3],0 n (%)
same,TEAE: fall,[3],1 (25.0) n (%)
same,TEAE: headache,[3],1 (25.0) n (%)
same,TEAE: hypertrigly-ceridaemia,[3],1 (25.0) n (%)
same,TEAE: hyponatremia,[3],1 (25.0) n (%)
same,TEAE: increased alanine aminotransferase,[3],1 (25.0) n (%)
same,TEAE: increased aspartate aminotransferase,[3],2 (50.0) n (%)
same,TEAE: nausea,[3],2 (50.0) n (%)
same,TEAE: seizure,[3],1 (25.0) n (%)
same,TEAE: vomiting,[3],1 (25.0) n (%)
same,Number of Patients with Any TEAE,[4],4 (100) n (%)
same,TEAE: Confusional state,[4],0 n (%)
same,TEAE: Gait disturbance,[4],0 n (%)
same,TEAE: Gastrointestinal disorder,[4],0 n (%)
same,TEAE: Hiccups,[4],2 (50.0) n (%)
same,TEAE: Tremor,[4],0 n (%)
same,TEAE: alopecia,[4],1 (25.0) n (%)
same,TEAE: constipation,[4],1 (25.0) n (%)
same,TEAE: decreased appetite,[4],1 (25.0) n (%)
same,TEAE: decreased lymphocyte count,[4],2 (50.0) n (%)
same,TEAE: decreased neutrophil count,[4],2 (50.0) n (%)
same,TEAE: decreased platelet count,[4],2 (50.0) n (%)
same,TEAE: diarrhea,[4],0 n (%)
same,TEAE: dry skin,[4],0 n (%)
same,TEAE: fall,[4],1 (25.0) n (%)
same,TEAE: fatigue,[4],1 (25.0) n (%)
same,TEAE: headache,[4],1 (25.0) n (%)
same,TEAE: hypertrigly-ceridaemia,[4],1 (25.0) n (%)
same,TEAE: hyponatremia,[4],1 (25.0) n (%)
same,TEAE: increase in blood cholesterol,[4],0 n (%)
same,TEAE: increased alanine aminotransferase,[4],1 (25.0) n (%)
same,TEAE: increased aspartate aminotransferase,[4],2 (50.0) n (%)
same,TEAE: maculopapular rash,[4],0 n (%)
same,TEAE: nausea,[4],2 (50.0) n (%)
same,TEAE: seizure,[4],1 (25.0) n (%)
same,TEAE: vomiting,[4],1 (25.0) n (%)
same,serious TEAE: disease progression,"40 mg QD group, cutoff April 21, 2024",one
same,serious TEAE: disease progression,"40 mg group, cutoff April 21, 2023",one
same,Number of patients with any TEAE,[5],3 (100) n (%)
same,TEAE: constipation,[5],0 n (%)
same,TEAE: decreased appetite,[5],0 n (%)
same,TEAE: decreased lymphocyte count,[5],0 n (%)
same,TEAE: decreased neutrophil count,[5],2 (66.7) n (%)
same,TEAE: decreased platelet count,[5],1 (33.3) n (%)
same,TEAE: decreased white blood cell count,[5],1 (33.3) n (%)
same,TEAE: dry skin,[5],0 n (%)
same,TEAE: fall,[5],0 n (%)
same,TEAE: headache,[5],1 (33.3) n (%)
same,TEAE: hypertrigly-ceridaemia,[5],0 n (%)
same,TEAE: hyponatremia,[5],1 (33.3) n (%)
same,TEAE: increased alanine aminotransferase,[5],2 (66.7) n (%)
same,TEAE: increased aspartate aminotransferase,[5],0 n (%)
same,TEAE: nausea,[5],2 (66.7) n (%)
same,TEAE: seizure,[5],0 n (%)
same,TEAE: vomiting,[5],0 n (%)
same,Number of Patients with Any TEAE,[6],3 (100) n (%)
same,TEAE: Confusional state,[6],0 n (%)
same,TEAE: Gait disturbance,[6],0 n (%)
same,TEAE: Gastrointestinal disorder,[6],0 n (%)
same,TEAE: Hiccups,[6],0 n (%)
same,TEAE: Tremor,[6],0 n (%)
same,TEAE: alopecia,[6],0 n (%)
same,TEAE: constipation,[6],0 n (%)
same,TEAE: decreased appetite,[6],0 n (%)
same,TEAE: decreased lymphocyte count,[6],0 n (%)
same,TEAE: decreased neutrophil count,[6],2 (66.7) n (%)
same,TEAE: decreased platelet count,[6],1 (33.3) n (%)
same,TEAE: diarrhea,[6],0 n (%)
same,TEAE: dry skin,[6],0 n (%)
same,TEAE: fall,[6],0 n (%)
same,TEAE: fatigue,[6],0 n (%)
same,TEAE: headache,[6],1 (33.3) n (%)
same,TEAE: hypertrigly-ceridaemia,[6],0 n (%)
same,TEAE: hyponatremia,[6],1 (33.3) n (%)
same,TEAE: increase in blood cholesterol,[6],0 n (%)
same,TEAE: increased alanine aminotransferase,[6],2 (66.7) n (%)
same,TEAE: increased aspartate aminotransferase,[6],0 n (%)
same,TEAE: maculopapular rash,[6],0 n (%)
same,TEAE: nausea,[6],2 (66.7) n (%)
same,TEAE: seizure,[6],0 n (%)
same,TEAE: vomiting,[6],0 n (%)
same,Number of patients with any TEAE,[7],6 (100) n (%)
same,TEAE: constipation,[7],2 (33.3) n (%)
same,TEAE: decreased appetite,[7],0 n (%)
same,TEAE: decreased lymphocyte count,[7],0 n (%)
same,TEAE: decreased neutrophil count,[7],1 (16.7) n (%)
same,TEAE: decreased platelet count,[7],0 n (%)
same,TEAE: decreased white blood cell count,[7],0 n (%)
same,TEAE: dry skin,[7],1 (16.7) n (%)
same,TEAE: fall,[7],1 (16.7) n (%)
same,TEAE: headache,[7],2 (33.3) n (%)
same,TEAE: hypertrigly-ceridaemia,[7],1 (16.7) n (%)
same,TEAE: hyponatremia,[7],1 (16.7) n (%)
same,TEAE: increased alanine aminotransferase,[7],2 (33.3) n (%)
same,TEAE: increased aspartate aminotransferase,[7],1 (16.7) n (%)
same,TEAE: nausea,[7],2 (33.3) n (%)
same,TEAE: seizure,[7],1 (16.7) n (%)
same,TEAE: vomiting,[7],2 (33.3) n (%)
same,Number of Patients with Any TEAE,[8],6 (100) n (%)
same,TEAE: Confusional state,[8],0 n (%)
same,TEAE: Gait disturbance,[8],0 n (%)
same,TEAE: Gastrointestinal disorder,[8],0 n (%)
same,TEAE: Hiccups,[8],0 n (%)
same,TEAE: Tremor,[8],0 n (%)
same,TEAE: alopecia,[8],0 n (%)
same,TEAE: constipation,[8],2 (33.3) n (%)
same,TEAE: decreased appetite,[8],0 n (%)
same,TEAE: decreased lymphocyte count,[8],0 n (%)
same,TEAE: decreased neutrophil count,[8],1 (16.7) n (%)
same,TEAE: decreased platelet count,[8],0 n (%)
same,TEAE: diarrhea,[8],1 (16.7) n (%)
same,TEAE: dry skin,[8],1 (16.7) n (%)
same,TEAE: fall,[8],1 (16.7) n (%)
same,TEAE: fatigue,[8],0 n (%)
same,TEAE: headache,[8],2 (33.3) n (%)
same,TEAE: hypertrigly-ceridaemia,[8],1 (16.7) n (%)
same,TEAE: hyponatremia,[8],1 (16.7) n (%)
same,TEAE: increase in blood cholesterol,[8],0 n (%)
same,TEAE: increased alanine aminotransferase,[8],2 (33.3) n (%)
same,TEAE: increased aspartate aminotransferase,[8],1 (16.7) n (%)
same,TEAE: maculopapular rash,[8],0 n (%)
same,TEAE: nausea,[8],2 (33.3) n (%)
same,TEAE: seizure,[8],1 (16.7) n (%)
same,TEAE: vomiting,[8],2 (33.3) n (%)
same,serious TEAE: aphasia,"120 mg QD group, cutoff April 21, 2024",one
same,serious TEAE: aphasia,"120 mg group, cutoff April 21, 2023",one
same,Number of patients with any TEAE,[9],3 (100) n (%)
same,TEAE: constipation,[9],1 (33.3) n (%)
same,TEAE: decreased appetite,[9],1 (33.3) n (%)
same,TEAE: decreased lymphocyte count,[9],1 (33.3) n (%)
same,TEAE: decreased neutrophil count,[9],1 (33.3) n (%)
same,TEAE: decreased platelet count,[9],1 (33.3) n (%)
same,TEAE: decreased white blood cell count,[9],0 n (%)
same,TEAE: dry skin,[9],0 n (%)
same,TEAE: fall,[9],1 (33.3) n (%)
same,TEAE: headache,[9],0 n (%)
same,TEAE: hypertrigly-ceridaemia,[9],1 (33.3) n (%)
same,TEAE: hyponatremia,[9],0 n (%)
same,TEAE: increased alanine aminotransferase,[9],2 (66.7) n (%)
same,TEAE: increased aspartate aminotransferase,[9],0 n (%)
same,TEAE: nausea,[9],1 (33.3) n (%)
same,TEAE: seizure,[9],1 (33.3) n (%)
same,TEAE: vomiting,[9],1 (33.3) n (%)
same,Number of Patients with Any TEAE,[10],6 (100) n (%)
same,TEAE: Confusional state,[10],1 (16.7) n (%)
same,TEAE: Gait disturbance,[10],1 (16.7) n (%)
same,TEAE: Gastrointestinal disorder,[10],2 (33.3) n (%)
same,TEAE: Hiccups,[10],0 n (%)
same,TEAE: Tremor,[10],2 (33.3) n (%)
